The values that follow come from patent US9120749B2, “Quinoline derivatives and MELK inhibitors containing the same” (ONCOTHERAPY SCIENCE, INC., priority 2010, dated 2015).

The test system of one test is HT-1197 cells. Briefly: Cell-based assay: anti-proliferative activity, Cell Counting Kit-8, 72 hours (HT-1197, negative control without MELK expression). Conditions: Homo sapiens, HT1197, 72 h, HT1197 cells (negative control, no MELK expression), 72 hours. A digest of the protocol: (§1)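 Target-specific cytotoxicity: seeded cells treated with MELK inhibitor candidates for 72 h, proliferation quantified via CCK-8, IC50 fitted.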
(Tetrazolium assays rely on reduction of a dye to a coloured formazan, in cell work by metabolically active cells.)

Another test has as its system T47D cells. The experiment in a line: Cell-based assay: anti-proliferative activity, Cell Counting Kit-8, 72 hours (T47D). Conditions: Homo sapiens, T47D, 72 h. In outline:
as §1

The subject of another test is DU4475 cells. The experiment in a line: Cell-based assay: anti-proliferative activity, Cell Counting Kit-8, 72 hours (DU4475). Conditions: Homo sapiens, DU-4475, 72 h.
The subject of another test is A549 cells. Briefly: Cell-based assay: anti-proliferative activity, Cell Counting Kit-8, 72 hours (A549). Conditions: Homo sapiens, A549, 72 h, 72 hours. In outline: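 A549 cells were seeded in 96-well plates and exposed to candidate inhibitors for 72 hours. Cell growth was then measured with Cell Counting Kit-8, and IC50 values were calculated from the resulting growth data.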

The target of a further test is MELK (Homo sapiens, UniProt Q14680). Briefly: Kinase assay: MELK activity, phosphorylation of FITC-labeled histone H3 peptide measured by IMAP fluorescence polarization. It is filed as biochemical. Conditions: read-out: IC50 (μM) (kinase assay). A digest of the protocol:
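Polarization of fluorescence served as the signal for MELK turnover of FITC-conjugated histone H3 peptide. Binding solution quenched each reaction, and plates stood 0.5 hour at room temperature before reading.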
On the technique in general: Fluorescence polarisation rises when a labelled molecule tumbles more slowly, as on binding a larger partner.

MELK, sequence (Q14680 whole entry, looked up): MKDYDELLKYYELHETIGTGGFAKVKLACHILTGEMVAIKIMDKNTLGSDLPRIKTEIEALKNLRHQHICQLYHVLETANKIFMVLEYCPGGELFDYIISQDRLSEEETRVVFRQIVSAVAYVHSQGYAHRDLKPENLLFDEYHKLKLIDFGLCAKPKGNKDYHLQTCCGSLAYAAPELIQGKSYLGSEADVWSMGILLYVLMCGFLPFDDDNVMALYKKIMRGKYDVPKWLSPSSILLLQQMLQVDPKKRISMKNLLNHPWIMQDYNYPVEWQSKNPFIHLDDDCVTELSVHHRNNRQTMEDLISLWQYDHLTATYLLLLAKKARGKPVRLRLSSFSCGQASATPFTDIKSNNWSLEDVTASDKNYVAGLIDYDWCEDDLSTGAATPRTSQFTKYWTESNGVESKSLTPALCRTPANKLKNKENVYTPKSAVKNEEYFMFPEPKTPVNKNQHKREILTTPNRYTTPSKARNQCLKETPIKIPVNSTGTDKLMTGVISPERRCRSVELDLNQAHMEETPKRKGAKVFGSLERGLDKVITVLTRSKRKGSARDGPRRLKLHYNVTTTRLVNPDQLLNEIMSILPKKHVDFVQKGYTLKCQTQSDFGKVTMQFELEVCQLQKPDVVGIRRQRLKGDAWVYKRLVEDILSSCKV

Take `CN(C)Cc1ccc(Nc2c(C(=O)C3CC3)cnc3ccc(-c4cc(Cl)c(O)c(Cl)c4)cc23)cn1` [Example 657, Cyclopropyl{6-(3,5-dichloro-4-hydroxyphenyl)-4-[6-((dimethylamino)methyl)pyridin-3-ylamino]quinolin-3-yl}methanone]: the IC50 (in general, the point on the concentration scale where inhibition reaches its midpoint) in the test on HT-1197 cells came out at 2.8 µM; with T47D cells, 0.31 µM; with DU4475 cells it was 0.098 µM; in the test on A549 cells it was 0.18 µM; at MELK it was 0.0089 µM.
Consider `CN(C)C[C@]1(O)CC[C@@H](Nc2c(C(=O)C3CC3)cnc3ccc(-c4cc(F)c(O)c(Cl)c4)cc23)CC1` [Example 673, (6-(3-chloro-5-fluoro-4-hydroxyphenyl)-4-((cis-4-((dimethylamino)methyl)-4-hydroxycyclohexyl)amino)quinolin-3-yl)(cyclopropyl)methanone], for which the half-inhibitory concentration (IC50) in the test with HT-1197 cells stood at 1.4 µM; with T47D cells, 0.16 µM; with DU4475 cells it was 0.089 µM; with A549 cells it was 0.16 µM; on MELK, 0.0042 µM.
Turning to `CN(C)CC(O)c1ccc(Nc2c(C(=O)C3CC3)cnc3ccc(-c4cc(F)c(O)c(Cl)c4)cc23)cc1` (stereo not shown) [Example 707, {6-(3-Chloro-5-fluoro-4-hydroxyphenyl)-4-[4-(2-(dimethylamino)-1-hydroxyethyl)phenylamino]quinolin-3-yl}(cyclopropyl)methanone], the concentration for half-maximal inhibition (IC50) in the test with HT-1197 cells worked out at 3.4 µM; in the test on T47D cells it was 0.21 µM; with DU4475 cells, 0.081 µM; in the test on A549 cells, 0.13 µM; at MELK, 0.0059 µM.
With `O=C(c1cnc2ccc(-c3cc(F)c(O)c(Cl)c3)cc2c1Nc1ccc(CN2CCCC2)nc1)C1CC1` [Example 672, (6-(3-chloro-5-fluoro-4-hydroxyphenyl)-4-(6-(pyrrolidin-1-ylmethyl)pyridin-3-ylamino)quinolin-3-yl)(cyclopropyl)methanone], the concentration for half-maximal inhibition (IC50) with HT-1197 cells is 3.2 µM; in the test with T47D cells, 0.39 µM; in the test with DU4475 cells, 0.16 µM; in the test on A549 cells it was 0.17 µM; at MELK, 0.014 µM.
Take `COc1cc(-c2ccc3ncc(C(=O)C4CC4)c(Nc4ccc(OCCN)nc4)c3c2)cc(Cl)c1O` [Example 722, (4-(6-(2-aminoethoxy)pyridin-3-ylamino)-6-(3-chloro-4-hydroxy-5-methoxyphenyl)quinolin-3-yl)(cyclopropyl)methanone]: the half-inhibitory concentration (IC50) in the test on HT-1197 cells was 2.3 µM; in the test on T47D cells, 0.19 µM; in the test on DU4475 cells it was 0.19 µM; with A549 cells, 0.32 µM; at MELK it was 0.0043 µM.
Consider `CNC[C@H]1CC[C@H](Nc2c(C(=O)C3CC3)cnc3ccc(-c4cc(Cl)c(O)c(Cl)c4)cc23)CC1` [Example 685, cyclopropyl(6-(3,5-dichloro-4-hydroxyphenyl)-4-((trans-4-((methylamino)methyl)cyclohexyl)amino)quinolin-3-yl)methanone], for which the IC50 with HT-1197 cells worked out at 0.73 µM; with T47D cells, 0.054 µM; with DU4475 cells, 0.018 µM; in the test on A549 cells it was 0.14 µM; on MELK it was 0.0016 µM.
For `CC(=O)c1cnc2ccc(-c3cc(Cl)c(O)c(Cl)c3)cc2c1N[C@@H]1CC[C@@H](CN(C)C)C1` [Example 718, 1-(6-(3,5-dichloro-4-hydroxyphenyl)-4-((1R,3R)-3-((dimethylamino)methyl)cyclopentylamino)quinolin-3-yl)ethanone] the same measures were 2 µM, 0.36 µM, 0.19 µM, 0.44 µM and 0.0055 µM.
For the molecule `CN(C)CC(O)c1ccc(Nc2c(C(=O)C3CC3)cnc3ccc(-c4cc(Cl)c(O)c(Cl)c4)cc23)cc1` (stereo not shown) [Example 709, Cyclopropyl{6-(3,5-dichloro-4-hydroxyphenyl)-4-[4-(2-(dimethylamino)-1-hydroxyethyl)phenylamino]quinolin-3-yl}methanone], the IC50 with HT-1197 cells was determined as 3.8 µM; in the test with T47D cells, 0.2 µM; with DU4475 cells, 0.077 µM; in the test on A549 cells, 0.14 µM; at MELK, 0.0035 µM.
